Entries after “also recorded” stand apart in the source; their conditions may differ.

One data set deals with BoNT/A (Clostridium botulinum, UniProt P0DPI1). The class given is cell-based, C. botulinum.
Chain of BoNT/A (P0DPI1 2-448 limits assumed): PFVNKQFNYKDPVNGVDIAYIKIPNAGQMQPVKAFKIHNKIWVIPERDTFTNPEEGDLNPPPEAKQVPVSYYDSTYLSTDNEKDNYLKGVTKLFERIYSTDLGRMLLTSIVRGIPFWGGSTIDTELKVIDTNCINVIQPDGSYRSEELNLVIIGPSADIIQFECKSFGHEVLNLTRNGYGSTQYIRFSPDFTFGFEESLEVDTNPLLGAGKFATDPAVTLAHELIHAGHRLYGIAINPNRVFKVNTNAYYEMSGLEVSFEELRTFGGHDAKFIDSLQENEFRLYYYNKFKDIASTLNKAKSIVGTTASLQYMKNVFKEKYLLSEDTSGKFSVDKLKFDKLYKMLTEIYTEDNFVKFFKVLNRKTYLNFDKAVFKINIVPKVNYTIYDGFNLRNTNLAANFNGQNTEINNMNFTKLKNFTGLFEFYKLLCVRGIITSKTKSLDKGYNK

Take `O=C(/C=C/c1ccc(Cl)cc1Cl)NOC(=O)NCc1ccccc1` [compound 1, (E)-N-((benzylcarbamoyl)oxy)-3-(2,4-dichlorophenyl)acrylamide]: the “Inhibition / protection of SNAP-25 from the neurotoxin (result in words)” value on BoNT/A is “ineffective inhibitors”. Moreover, the Cytotoxicity entry in the data set on hiPSC-derived neurons (at 150 µM) was “cytotoxic at 150 µM ^a”.

Take `O=C(CC(CCO)c1ccc(Cl)cc1Cl)NOC(=O)NCc1ccccc1` (centres unmarked) [compound 2, N-((benzylcarbamoyl)oxy)-3-(2,4-dichlorophenyl)-5-hydroxypentanamide]: at BoNT/A, the Inhibition entry was “no inhibition; also recorded: partial inhibition at 300 µM” and the “Inhibition / protection of SNAP-25 from the neurotoxin (result in words)” value is on record as “ineffective inhibitors”. Moreover, the “Cytotoxicity (result in words)” value in the data set on hiPSC-derived neurons is reported as “did not show cytotoxicity”.

Source of the values: article PMC3919520 (Bioorganic & medicinal chemistry, 2013).
